Values quoted from earlier work in patent US9250230B2, “Using induced pluripotent stem cells for screening anti-neoplastic agents” (priority 2011, dated 2016).

Tests used:
iPS reprogramming = iPS reprogramming of somatic cells
[1] = test system: chemical reprogramming to CiPSCs; settings: TTNPB added to small-molecule reprogramming

SMILES | effect on reprogramming efficiency (iPS reprogramming) | enhancement of reprogramming efficiency of chemical reprogramming [1]
O=C(CO)[C@@H](O)[C@H](O)[C@H](O)COP(=O)(O)O [F6P, D-fructose-6-phosphate] | increased reprogramming efficiency | –
O=CC[C@@H](O)[C@H](O)[C@H](O)CO [2-DG, 2-deoxy-D-glucose] | inhibited the reprogramming efficiency | –
C/C(=C\c1ccc(C(=O)O)cc1)c1ccc2c(c1)C(C)(C)CCC2(C)C [TTNPB] | – | up to 40 fold
